Numbers after ± are expanded uncertainties.
Settings: Crystal; DTA

- Normal melting temperature: 205.50 ± 1.1 °C
Structure (SMILES): CC(=O)[C@@]12O[C@@H]1C[C@H]1[C@@H]3CCC4=CC(=O)CC[C@]4(C)[C@H]3CC[C@@]12C [16α,17-epoxypregn-4-ene-3,20-dione]

Source: the NIST ThermoML archive (doi:10.1021/je050195w)
